Measured values taken from patent US11278530B2, “Polycyclic amides as muscarinic M1 receptor positive allosteric modulators” (SUVEN LIFE SCIENCES LIMITED, priority 2017, dated 2022).

Biological target: T1, recombinant human Muscarinic M1 receptor (Homo sapiens, UniProt P11229)
T1 sequence (P11229 1-460): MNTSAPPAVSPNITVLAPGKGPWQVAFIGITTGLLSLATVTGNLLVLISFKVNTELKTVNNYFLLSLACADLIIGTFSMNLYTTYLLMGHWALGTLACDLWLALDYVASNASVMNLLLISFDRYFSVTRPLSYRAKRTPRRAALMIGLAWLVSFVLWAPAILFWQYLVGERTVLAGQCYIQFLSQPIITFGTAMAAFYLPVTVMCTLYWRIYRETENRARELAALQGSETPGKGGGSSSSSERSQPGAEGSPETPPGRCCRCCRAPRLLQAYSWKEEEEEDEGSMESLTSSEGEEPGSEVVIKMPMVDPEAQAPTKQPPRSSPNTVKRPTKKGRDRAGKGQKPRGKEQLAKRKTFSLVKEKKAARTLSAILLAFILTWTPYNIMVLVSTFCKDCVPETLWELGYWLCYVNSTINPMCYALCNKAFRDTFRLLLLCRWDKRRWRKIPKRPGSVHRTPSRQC
Assay: Allosteric potency EC50 for Muscarinic M1 receptor, CHO pCRE-Luc reporter cell-based assay with EC20 of acetylcholine
Conditions: CHO cells, human M1, luciferase reporter, in presence of EC20 of acetylcholine, 4 h
Procedure: Determination of allosteric potency EC50 values for Muscarinic M1 receptor:
A stable CHO cell line expressing recombinant human Muscarinic M1 receptor and pCRE-Luc reporter system was used for cell-based assay. The assay offers a non-radioactive based approach to determine binding of a compound to GPCRs. In this specific assay, the level of intracellular cyclic AMP which is modulated by activation or inhibition of the receptor is measured. The recombinant cells harbor luciferase reporter gene under the control of cAMP response element.
The above cells were grown in 96 well clear bottom white plates in Hams F12 medium containing 10% fetal bovine serum (FBS). Prior to the addition of compounds or standard agonist, cells were serum starved overnight. Increasing concentrations of test compounds were added along with EC20 of acetylcholine in OptiMEM medium to the cells. The incubation was continued at 37° C. in CO2 incubator for 4 h. Medium was removed and cells were washed with phosphate buffered saline. The cells were lysed and luciferase activity was measured in a Luminometer. Luminescence counts in each concentrations of test item were normalized to the acetylcholine induced maximum response and the data was analyzed using Graphpad software. EC50 values of the compounds were defined as the concentration required in stimulating the luciferase activity by 50% in presence of EC20 of acetylcholine.

SMILES | EC50 [nM]
Cc1c(Cc2ccc(Cl)nc2)cc(C(=O)NC2CCOC[C@@H]2O)c2ncccc12 (stereo partly drawn) [Example 3, N-(cis-3S,4S-3-Hydroxytetrahydropyran-4-yl)-6-(2-chloropyridin-5-ylmethyl)-5-methylquinoline-8-carboxamide] | 1240
Cc1c(Cc2ccnc(F)c2)cc(C(=O)N[C@H]2CCCC[C@@H]2O)c2ncccc12 [Example 4, N-(cis-1S,2S-2-Hydroxycyclohexyl)-6-(2-fluoropyridin-4-ylmethyl)-5-methylquinoline-8-carboxamide] | 960
Cc1c(Cc2ccccc2F)cc(C(=O)N[C@H]2CCCC[C@@H]2O)c2ncccc12 [Example 5, N-(cis-1S,2S-2-Hydroxycyclohexyl)-6-(2-fluorobenzyl)-5-methylquinoline-8-carboxamide] | 2340
Cc1c(Cc2ccc(-c3cnn(C)c3)nc2)cc(C(=O)N[C@H]2CCCC[C@@H]2O)c2ncccc12 [Example 7, N-(cis-1S,2S-2-Hydroxycyclohexyl)-6-[2-(1-methyl-1H-pyrazol-4-yl)-pyridin-5-ylmethyl]-5-methylquinoline-8-carboxamide] | 232
Cc1c(Cc2ccc(-c3cnn(C)c3)c(F)c2)cc(C(=O)N[C@H]2CCCC[C@@H]2O)c2ncccc12 [Example 9, N-(cis-1S,2S-2-Hydroxycyclohexyl)-6-[3-fluoro-4-(1-methyl-1H-pyrazol-4-yl)-benzyl]-5-methylquinoline-8-carboxamide] | 185
Cc1c(Cc2ccc(-n3cccn3)cc2)cc(C(=O)N[C@H]2CCCC[C@@H]2O)c2ncccc12 [Example 10, N-(cis-1S,2S-2-Hydroxycyclohexyl)-6-(4-pyrazol-1-yl-benzyl)-5-methylquinoline-8-carboxamide] | 157
Cc1c(Cc2ccc(-c3cscn3)cc2)cc(C(=O)N[C@H]2CCCC[C@@H]2O)c2ncccc12 [Example 12, N-(cis-1S,2S-2-Hydroxycyclohexyl)-6-(4-thiazol-4-yl-benzyl)-5-methylquinoline-8-carboxamide] | 258
Cc1c(Cc2ccc(-c3cscn3)cc2)cc(C(=O)N[C@H]2CCOC[C@@H]2O)c2ncccc12 [Example 13, N-(cis-3S,4S-3-Hydroxytetrahydropyran-4-yl)-6-(4-thiazol-4-yl-benzyl)-5-methylquinoline-8-carboxamide] | 249
Cc1c(Cc2ccc(-c3cnn(C)c3)cc2)cc(C(=O)N[C@H]2CCCC[C@@H]2O)c2c1NCCO2 [Example 16, N-(cis-1S,2S-2-Hydroxycyclohexyl)-6-[4-(1-methyl-1H-pyrazol-4-yl)-benzyl]-5-methyl-3,4-dihydro-2H-benzo[1,4]oxazine-8-carboxamide] | 798
Cc1c(Cc2ccc(-c3cnn(C)c3)cc2)cc(C(=O)N[C@H]2CCCC[C@@H]2O)c2nccn12 [Example 18, N-(cis-1S,2S-2-Hydroxycyclohexyl)-5-methyl-6-[4-(1-methyl-1H-pyrazol-4-yl)-benzyl]-imidazo[1,2-a]pyridine-8-carboxamide] | 248
Cc1c(Cc2ccc(-n3cccn3)cc2)cc(C(=O)N[C@H]2CCCC[C@@H]2O)c2nccn12 [Example 19, N-(cis-1S,2S-2-Hydroxycyclohexyl)-5-methyl-6-(4-pyrazol-1-yl-benzyl)-imidazo[1,2-a]pyridine-8-carboxamide] | 178
Cc1c(Cc2ccc(-c3cnn(C)c3)cc2F)cc(C(=O)N[C@H]2CCCC[C@@H]2O)c2nccn12 [Example 20, N-(cis-1S,2S-2-Hydroxycyclohexyl)-5-methyl-6-[2-fluoro-4-(1-methyl-1H-pyrazol-4-yl)-benzyl]-imidazo[1,2-a]pyridine-8-carboxamide] | 28
Cn1cc(-c2ccc(Cc3cc(C(=O)N[C@H]4CCCC[C@@H]4O)c4nccn4c3)c(F)c2F)cn1 [Example 21, N-(cis-1S,2S-2-Hydroxycyclohexyl)-6-[2,3-difluoro-4-(1-methyl-1H-pyrazol-4-yl)-benzyl]-imidazo[1,2-a]pyridine-8-carboxamide] | 1050
O=C(N[C@H]1CCCC[C@@H]1O)c1cc(Cc2cccc(F)c2F)cn2ccnc12 [Example 22, N-(cis-1S,2S-2-Hydroxycyclohexyl)-6-(2.3-difluorobenzyl)-imidazo[1,2-a]pyridine-8-carboxamide] | 3820
O=C(N[C@H]1CCCC[C@@H]1O)c1cc(Cc2ccc(-c3cscn3)cc2)cn2ccnc12 [Example 23, N-(cis-1S,2S-2-Hydroxycyclohexyl)-6-(4-thiazol-4-yl-benzyl)-imidazo[1,2-a]pyridine-8-carboxamide] | 308
O=C(N[C@H]1CCCC[C@@H]1O)c1cc(Cc2ccc(-c3ccccc3)cc2)cn2ccnc12 [Example 24, N-(cis-1S,2S-2-Hydroxycyclohexyl)-6-(4-phenyl-benzyl)-imidazo[1,2-a]pyridine-8-carboxamide] | 3910
Cn1cc(-c2ccc(Cc3cc(C(=O)N[C@H]4CCCC[C@@H]4O)c4nccn4c3)cc2)cn1 [Example 25, N-(cis-1S,2S-2-Hydroxycyclohexyl)-6-[4-(1-methyl-1H-pyrazol-4-yl)-benzyl]-imidazo[1,2-a]pyridine-8-carboxamide] | 444
Cn1cc(-c2ccc(Cc3cc(C(=O)N[C@H]4CCCC[C@@H]4O)c4nccn4c3)c(F)c2)cn1 [Example 26, N-(cis-1S,2S-2-Hydroxycyclohexyl)-6-[2-fluoro-4-(1-methyl-1H-pyrazol-4-yl)-benzyl]-imidazo[1,2-a]pyridine-8-carboxamide] | 3340
Cc1c(Cc2ccc(-n3cccn3)cc2)cc(C(=O)N[C@H]2CCCC[C@@H]2O)c2nc[nH]c12 [Example 27, N-(cis-1S,2S-2-Hydroxycyclohexyl)-7-methyl-6-(4-pyrazol-1-yl-benzyl)-1H-benzimidazole-4-carboxamide] | 357
Cc1c(Cc2ccc(-c3cnn(C)c3)cc2)cc(C(=O)N[C@H]2CCCC[C@@H]2O)c2nc[nH]c12 [Example 28, N-(cis-1S,2S-2-Hydroxycyclohexyl)-7-methyl-6-[4-(1-methyl-1H-pyrazol-4-yl)-benzyl]-1H-benzimidazole-4-carboxamide] | 105
Cn1cc(-c2ccc(Cc3cc(C(=O)N[C@@H]4CCCC[C@H]4O)c4nc[nH]c4c3)cc2)cn1 [Example 29, N-(cis-1S,2S-2-Hydroxycyclohexyl)-6-[4-(1-methyl-1H-pyrazol-4-yl)-benzyl]-1H-benzimidazole-4-carboxamide] | 449
Cc1c(Cc2ccc(-c3cnn(C)c3)cc2F)cc(C(=O)N[C@@H]2CCCC[C@H]2O)c2nc[nH]c12 [Example 30, N-(cis-1S,2S-2-Hydroxycyclohexyl)-7-methyl-6-[2-fluoro-4-(1-methyl-1H-pyrazol-4-yl)-benzyl]-1H-benzimidazole-4-carboxamide] | 151
Cc1c(Cc2cccnc2Cl)cc(C(=O)N[C@@H]2CCCC[C@H]2O)c2nc[nH]c12 [Example 31, N-(cis-1S,2S-2-Hydroxycyclohexyl)-7-methyl-6-[2-chloropyridin-3-ylmethyl]-1H-benzimidazole-4-carboxamide] | 2820
Cc1c(Cc2ccc(-c3cscn3)cc2)cc(C(=O)N[C@@H]2CCCC[C@H]2O)c2nc[nH]c12 [Example 32, N-(cis-1S,2S-2-Hydroxycyclohexyl)-7-methyl-6-[4-(thiazol-4-yl)-benzyl]-1H-benzimidazole-4-carboxamide] | 516
Cc1c(Cc2cccc(F)c2F)cc(C(=O)N[C@@H]2CCCC[C@H]2O)c2nc[nH]c12 [Example 33, N-(cis-1S,2S-2-Hydroxycyclohexyl)-7-methyl-6-[2,3-difluorobenzyl]-1H-benzimidazole-4-carboxamide] | 3660
Cc1c(Cc2ccc(F)c(F)c2)cc(C(=O)N[C@@H]2CCCC[C@H]2O)c2nc[nH]c12 [Example 34, N-(cis-1S,2S-2-Hydroxycyclohexyl)-7-methyl-6-[3,4-difluorobenzyl]-1H-benzimidazole-4-carboxamide] | 2280
Cc1c(Cc2ccc(-c3cnn(C)c3)nc2)cc(C(=O)N[C@@H]2CCCC[C@H]2O)c2nc[nH]c12 [Example 35, N-(cis-1S,2S-2-Hydroxycyclohexyl)-7-methyl-6-[6-(1-methyl-1H-pyrazol-4-yl)-pyridin-3-ylmethyl]-1H-benzimidazole-4-carboxamide] | 237
Cc1c(Cc2ccc(-c3cnn(C)c3)c(F)c2F)cc(C(=O)N[C@H]2CCCC[C@@H]2O)c2[nH]cnc12 [Example 36, N-(cis-1S,2S-2-Hydroxycyclohexyl)-7-methyl-6-[2,3-difluoro-4-(1-methyl-1H-pyrazol-4-yl)-benzyl]-1H-benzimidazole-4-carboxamide] | 465
Cn1cc(-c2ccc(Cc3cc(C(=O)N[C@H]4CCCC[C@@H]4O)c4[nH]cnc4c3)c(F)c2F)cn1 [Example 37, N-(cis-1S,2S-2-Hydroxycyclohexyl)-6-[2,3-difluoro-4-(1-methyl-1H-pyrazol-4-yl)-benzyl]-1H-benzimidazole-4-carboxamide] | 597
